Source: ChEMBL document CHEMBL2203186, “T-type Ca2+ channel blocker, KYS05047 induces G1 phase cell cycle arrest by decreasing intracellular Ca2+ levels in human lung adenocarcinoma A549 cells” (Bioorg Med Chem Lett, 2012)
Activity calls are given as the source filed them. The calls are words filed in the database; no cut-off is given here.

Tests used:
[1] = tested on: A549; test: Effect on Cyclin E protein level in human A549 cells at 7 uM after 3 to 24 hrs by Western blot method; assay type: functional, cell-based
[2] = tested on: A549; test: Downregulation of Cdk4 protein level in human A549 cells at 7 uM after 3 to 24 hrs by Western blot method; assay type: functional, cell-based
[3] = tested on: A549; test: Growth inhibition of human A549 cells at 6 to 48 hrs by trypan Blue assay; assay type: functional, cell-based
[4] = tested on: A549; test: Inhibition of T-type Ca2+ channel in human A549 cells assessed as reduction in intracellular ca2+ level at 3 to 8 uM after 108 mins by Fluo-4 staining method; assay type: cell-based
[5] = tested on: A549; test: Cell cycle arrest at G1 phase in human A549 cells at 7 uM after 24 hrs using propidium iodide by flow cytometry in presence of KCl; assay type: functional, cell-based
[6] = tested on: A549; test: Effect on Cyclin D1 protein level in human A549 cells at 7 uM after 3 to 24 hrs by Western blot method; assay type: functional, cell-based
[7] = tested on: A549; test: Upregulation of p27Kip1 protein level in human A549 cells assessed as inhibition of CDK4-mediated Rb phosphorylation at 7 uM by Western blot method; assay type: functional, cell-based; details: TDE = time-dependent effect
[8] = tested on: A549; test: Cytocidal activity in human A549 cells at 6 to 8 uM by trypan Blue assay; assay type: functional, cell-based
[9] = tested on: A549; test: Inhibition of T-type Ca2+ channel in human A549 cells assessed as reduction in intracellular ca2+ level at 3 to 8 uM after 108 mins by Fluo-4 staining method in presence of KCl; assay type: cell-based
[10] = tested on: A549; test: Cell cycle arrest in human A549 cells assessed as reduction in cells at S phase at 2 to 7 uM after 24 hrs using propidium iodide by flow cytometry; assay type: functional, cell-based
[11] = tested on: A549; test: Upregulation of p27Kip1 protein level in human A549 cells assessed as inhibition of AKT activity at 7 uM by Western blot method; assay type: functional, cell-based; details: TDE = time-dependent effect
[12] = tested on: A549; test: Upregulation of p27Kip1 protein level in human A549 cells assessed as inhibition of CDK2 activity at 7 uM by Western blot method; assay type: functional, cell-based; details: TDE = time-dependent effect
[13] = tested on: A549; test: Upregulation of p27Kip1 protein level in human A549 cells assessed as inhibition of mTOR activity at 7 uM by Western blot method; assay type: functional, cell-based; details: TDE = time-dependent effect
[14] = tested on: A549; test: Antitumor activity against human A549 cells xenografted in BALB/c nu/nu mouse assessed as tumor growth inhibition at 2 to 10 mg/kg, po administered 5 times a week for 21 days; assay type: functional, organism-based
[15] = tested on: A549; test: Growth inhibition of human A549 cells at 4 to 12 uM by trypan Blue assay; assay type: functional, cell-based; details: TDE = time-dependent effect
[16] = tested on: A549; test: Upregulation of p27Kip1 protein level in human A549 cells at 7 uM by Western blot method; assay type: functional, cell-based; details: TDE = time-dependent effect
[17] = tested on: A549; test: Cell cycle arrest at G1 phase in human A549 cells at 7 uM after 24 hrs using propidium iodide by flow cytometry; assay type: functional, cell-based
[18] = tested on: A549; test: Downregulation of Cdk2 protein level in human A549 cells at 7 uM after 3 to 24 hrs by Western blot method; assay type: functional, cell-based
[19] = tested on: A549; test: Effect on p21Waf1 protein level in human A549 cells at 7 uM after 3 to 24 hrs by Western blot method; assay type: functional, cell-based
[20] = tested on: A549; test: Antitumor activity against human A549 cells xenografted in BALB/c nu/nu mouse assessed as tumor growth inhibition at 20 mg/kg, ip administered twice a week for 21 days; assay type: functional, organism-based; parameters: dose 20 mg/kg
[21] = tested on: Mus musculus; test: Toxicity in BALB/c nu/nu mouse assessed as mortality at 20 mg/kg, ip administered twice a week for 21 days; assay type: organism-based; parameters: dose 20 mg/kg, route intraperitoneal; details: in vivo, 504 h
[22] = tested on: Mus musculus; test: Toxicity in BALB/c nu/nu mouse assessed as change in body weight at 20 mg/kg, ip administered twice a week for 21 days; assay type: organism-based; parameters: dose 20 mg/kg, route intraperitoneal; details: in vivo, 504 h

SMILES: CC(C)(C)OC(=O)NCCCCCN1C(Nc2ccc(-c3ccccc3)cc2)=Nc2ccccc2C1CC(=O)NCc1ccccc1 (configuration not stated)
- Activity [1]: inactive
- Activity [2]: Active
- growth inhibition (GI) [3]: Dose-dependent effect
- inhibition [4]: Active
- Activity [5]: inactive
- Activity [6]: inactive
- inhibition [7]: tde
- Activity [8]: inactive
- inhibition [9]: inactive
- Activity [10]: Active
- inhibition [11]: tde
- inhibition [12]: tde
- inhibition [13]: tde
- TGI [14]: Active
- growth inhibition (GI) [15]: tde
- Activity [16]: tde
- Activity [17]: Active
- Activity [18]: Active
- Activity [19]: inactive

SMILES: CC(=O)O[C@H]1C(=O)[C@@]2(C)[C@H]([C@H](OC(=O)c3ccccc3)[C@]3(O)C[C@H](OC(=O)[C@H](O)[C@@H](NC(=O)c4ccccc4)c4ccccc4)C(C)=C1C3(C)C)[C@]1(OC(C)=O)CO[C@@H]1C[C@@H]2O [PACLITAXEL]
- TGI [20]: Active
- Activity [21]: Non-toxic
- Activity [22]: Non-toxic
